Patent US7521480B2, “Aryl ureido benzoic acid derivatives and their use” (Neurosearch, priority 2002, dated 2009)

Target: T1, GluR6 receptor (Homo sapiens, UniProt Q13002)
T1 construct: expressed in transfected cells; host or cells: HEK 293
Test: GluR6 functional assay: inhibition of domoate-induced increase in Cai (FLIPR)
Assay type: cell-based
Details: HEK 293 cells stably expressing GluR6; domoate 0.2 μM; Fluo-4 FLIPR, 25° C.
From the text: (§1) This example describes cell-based assays carried out using human embryonic HEK 293 cells stably expressing GluR5 and GluR6 receptors, respectively, in which assays the inhibition of domoate-induced increase in Cai is used as a measure for glutamate antagonist activity of test substances.
(§2) The intracellular free calcium concentration (Cai) is regulating the majority of metabolic processes in mammalian cells. Elevations of Cai in excitable tissues such as neurones are seen after specific activation of receptor operated calcium channels (e.g. glutamate, receptors), or after depolarisation and opening of voltage operated calcium channels. Some neurotransmitters and neuro-modulator increase Cai by activating G-protein coupled ionophors or by release of Cai from intracellular stores via the second messenger IP3.
(§3) Cai is determined by fluorometric methods in a Fluorescent Image Plate Reader (FLIPR). Calcium-chelating fluorochromes (tetracarboxylic acids) are loaded into the cells as acetoxymethyl esters and subsequently released by an unspecific intracellular esterase. The free acids, which are impermeable to the cell membrane, are maintained in the cell for hours. The fluorescence spectrum (either EXmax, EMmax or both) is changed by the binding of calcium, and the fluorescence is directly proportional to the Cai.
The present method uses the fluorochromes Fluo-3 or Fluo-4 as the calcium-chelator. Fluo-3/Fluo-4 is virtually non-fluorescent without calcium, but the calcium-Fluo-3/Fluo-4 complexes show a bright fluorescence (EMmax=526 nm) after excitation around 500 nm (EXmax=505 nm). This fluorescence spectrum is similar to the spectrum of fluorescein. Since excitation and emission is in the visible light region of the spectrum, standard equipment without quarts optics may be used. […]
(§4) After the loading period, the loading media is aspirated and the cells are washed twice with 100 μl Na^+ free Ringer (NN: 10 mM HEPES, 140 mM Choline chloride, 5 mM KCl, 1 mM MgCl2, 10 mM CaCl2, pH 7.4) to remove extracellular dye. 100 μl NN is added to each well, and the fluorescence is measured in the FLIPR.
(§5) Cells are pre-incubated for 1.5 min with test compound (50 μl) before addition of domoate (50 μl) to a final concentration of 2 μM when determined on GluR5 and 0.2 μM when determined on GluR6. […]
• Temperature: 25° C. • Preincubation: 50 μl test solution at a rate of 30 μl/sec and starting height of 100 μl • […] phase: 50 μl domoate solution (8 μM) at a rate of 35 μl/sec and starting height of 150 μl • Reading intervals: preincubation—10 sec×7 and 3 sec×3 antagonist phase—3 sec×17 and 10 sec×12 […]

T1 sequence (Q13002 32-908): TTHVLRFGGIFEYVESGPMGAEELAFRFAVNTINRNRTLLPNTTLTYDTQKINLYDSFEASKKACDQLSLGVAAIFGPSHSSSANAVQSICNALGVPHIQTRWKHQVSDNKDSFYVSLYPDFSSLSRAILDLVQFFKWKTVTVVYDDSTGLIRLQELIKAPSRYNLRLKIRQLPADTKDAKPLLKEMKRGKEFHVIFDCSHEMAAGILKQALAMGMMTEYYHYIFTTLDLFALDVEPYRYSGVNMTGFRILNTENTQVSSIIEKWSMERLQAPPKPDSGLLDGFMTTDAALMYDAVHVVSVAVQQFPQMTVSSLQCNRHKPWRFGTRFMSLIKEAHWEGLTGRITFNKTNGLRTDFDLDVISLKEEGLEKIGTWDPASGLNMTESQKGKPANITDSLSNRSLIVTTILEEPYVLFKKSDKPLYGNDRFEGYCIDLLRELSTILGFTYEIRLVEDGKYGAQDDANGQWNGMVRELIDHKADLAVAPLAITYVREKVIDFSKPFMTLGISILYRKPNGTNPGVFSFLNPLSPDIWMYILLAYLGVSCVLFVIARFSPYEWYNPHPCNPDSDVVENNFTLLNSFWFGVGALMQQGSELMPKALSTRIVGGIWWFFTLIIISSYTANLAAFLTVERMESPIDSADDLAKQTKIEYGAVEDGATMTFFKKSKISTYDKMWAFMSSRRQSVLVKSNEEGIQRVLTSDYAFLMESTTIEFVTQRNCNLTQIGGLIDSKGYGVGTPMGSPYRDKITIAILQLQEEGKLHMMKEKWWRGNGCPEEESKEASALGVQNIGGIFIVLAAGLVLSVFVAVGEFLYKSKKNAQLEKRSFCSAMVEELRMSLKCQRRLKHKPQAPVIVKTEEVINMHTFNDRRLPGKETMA

| Compound | IC50 [µM] |
| --- | --- |
| O=C(Nc1cccc(Cl)c1)Nc1cc(Cl)ccc1C(=O)O [Compound C14, 4-Chloro-2-[3-(3-chloro-phenyl)-ureido]-benzoic acid] | 37 |
| 2-[3-(3-Bromo-phenyl)-ureido]-4-chloro-benzenesulfonic acid, triethylammonium salt [Compound A1] | 10 |
| Cc1cc(S(=O)(=O)O)c(NC(=O)Nc2cccc(Br)c2)cc1Cl [Compound 1a, 2-[3-(3-Bromo-phenyl)-ureido]-4-chloro-5-methyl-benzenesulfonic acid] | 32 |
| O=C(Nc1ccc2ccccc2c1)Nc1cc(Cl)ccc1C(=O)O [Compound E2, 4-Chloro-2-(3-naphtalen-2-yl-ureido)-benzoic acid] | 70 |

Target: T2, GluR5 receptor (Homo sapiens, UniProt P39086)
T2 construct: expressed in transfected cells; host or cells: HEK 293
Test: GluR5 functional assay: inhibition of domoate-induced increase in Cai (FLIPR)
Assay type: cell-based
Details: HEK 293 cells stably expressing GluR5; domoate 2 μM; Fluo-4 FLIPR, 25° C.
From the text: as §1, §2, §3
The present method uses the fluorochromes Fluo-3 or Fluo-4 as the calcium-chelator. Fluo-3/Fluo-4 is virtually non-fluorescent without calcium, but the calcium-Fluo-3/Fluo-4 complexes show a bright fluorescence (EMmax=526 nm) after excitation around 500 nm (EXmax=505 nm). This fluorescence spectrum is similar to the spectrum of fluorescein. Since excitation and emission is in the visible light region of the spectrum, standard equipment without quarts optics may be used.
The kainate subtype of ionotropic glutamate receptors exists of two high affinity subunits—KA1 and KA2, and three low affinity subunits—GluR5-7. The ion channel in the GluR5 receptor subtype can be made permeable for calcium by substitution of an arginine (R) to a glutamine (Q) in the pore region. The stably expressed human GluR5 receptors used here are calcium permeable (Q), which makes them ideal for fluorescence measurements. […]
as §4, §5

T2 sequence (P39086 31-918): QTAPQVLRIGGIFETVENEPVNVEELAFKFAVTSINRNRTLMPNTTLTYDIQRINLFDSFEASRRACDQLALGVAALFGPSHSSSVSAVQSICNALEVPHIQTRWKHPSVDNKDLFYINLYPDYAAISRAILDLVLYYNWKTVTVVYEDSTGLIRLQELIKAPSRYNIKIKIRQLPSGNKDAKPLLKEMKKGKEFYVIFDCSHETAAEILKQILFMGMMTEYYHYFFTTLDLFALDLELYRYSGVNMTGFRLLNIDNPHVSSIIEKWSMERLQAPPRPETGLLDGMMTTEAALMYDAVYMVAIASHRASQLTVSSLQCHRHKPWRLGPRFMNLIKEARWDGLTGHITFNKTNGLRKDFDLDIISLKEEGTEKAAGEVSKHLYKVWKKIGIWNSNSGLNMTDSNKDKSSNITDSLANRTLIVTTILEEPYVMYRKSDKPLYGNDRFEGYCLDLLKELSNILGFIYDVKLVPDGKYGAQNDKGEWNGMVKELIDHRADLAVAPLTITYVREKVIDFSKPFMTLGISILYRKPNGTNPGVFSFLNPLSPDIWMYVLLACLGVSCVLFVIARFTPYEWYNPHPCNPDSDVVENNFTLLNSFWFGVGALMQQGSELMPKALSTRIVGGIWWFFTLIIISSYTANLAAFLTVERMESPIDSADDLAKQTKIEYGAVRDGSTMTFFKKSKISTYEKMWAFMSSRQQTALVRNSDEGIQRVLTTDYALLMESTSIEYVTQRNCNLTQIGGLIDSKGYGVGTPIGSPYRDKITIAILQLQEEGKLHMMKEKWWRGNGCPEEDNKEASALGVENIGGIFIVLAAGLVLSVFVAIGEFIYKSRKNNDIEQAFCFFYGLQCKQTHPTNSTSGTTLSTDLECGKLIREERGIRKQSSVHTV

| Compound | IC50 [µM] |
| --- | --- |
| O=C(Nc1cccc(Cl)c1)Nc1cc(Cl)ccc1C(=O)O [Compound C14, 4-Chloro-2-[3-(3-chloro-phenyl)-ureido]-benzoic acid] | 1.3 |
| 2-[3-(3-Bromo-phenyl)-ureido]-4-chloro-benzenesulfonic acid, triethylammonium salt [Compound A1] | 1.5 |
| Cc1cc(S(=O)(=O)O)c(NC(=O)Nc2cccc(Br)c2)cc1Cl [Compound 1a, 2-[3-(3-Bromo-phenyl)-ureido]-4-chloro-5-methyl-benzenesulfonic acid] | 1.1 |
| O=C(Nc1ccc2ccccc2c1)Nc1cc(Cl)ccc1C(=O)O [Compound E2, 4-Chloro-2-(3-naphtalen-2-yl-ureido)-benzoic acid] | 1.2 |

System: not given
Test: not given
Details: not given

| melting point | Compound |
| --- | --- |
| 205 to 207 °C | O=C(Nc1ccc(Cl)cc1)Nc1cc(Cl)ccc1C(=O)O |
| 212 to 214 °C (dec.) | O=C(Nc1ccc(O)cc1)Nc1cc(Cl)ccc1C(=O)O |
| 194 to 195 °C | O=C(Nc1ccc(F)cc1)Nc1cc(Cl)ccc1C(=O)O |
| 277 to 279 °C (dec.) | O=C(Nc1cc2ccccc2[nH]1)Nc1cc(Cl)ccc1S(=O)(=O)O |
| 209 to 210 °C (dec.) | O=C(Nc1ccc(I)cc1)Nc1cc(Cl)ccc1C(=O)O |
| 179 to 180 °C (dec.) | O=C(Nc1ccccc1O)Nc1cc(Cl)ccc1C(=O)O |
| 260 to 263 °C (dec.) | O=C(Nc1ccc2c(c1)-c1ccccc1C2=O)Nc1cc(Cl)ccc1C(=O)O |
| 284 to 286 °C (dec.) | Cc1cc(S(=O)(=O)O)c(NC(=O)Nc2cc3ccccc3[nH]2)cc1Cl |
| 208 to 209 °C | O=C(Nc1cc(Cl)ccc1C(=O)O)Nc1ccccc1-c1ccccc1 |
| 193 to 194 °C | O=C(Nc1ccc(-c2ccccc2)cc1)Nc1cc(Cl)ccc1C(=O)O |
| > 300 °C | Cc1cc(S(=O)(=O)O)c(NC(=O)Nc2ccc3ccccc3c2)cc1Cl |
| 246 to 248 °C (dec.) | O=C(Nc1cccc(C(F)(F)F)c1)Nc1cc(Cl)ccc1-c1noc(=O)[nH]1 |
| 183 to 185 °C | O=C(Nc1ccc2c(c1)OCO2)Nc1cc(Cl)ccc1C(=O)O |
| 167 to 169 °C (dec.) | O=C(Nc1ccc2ccccc2c1)Nc1cc(Cl)ccc1-c1nnn[nH]1 |
| 210 to 211 °C (dec.) | O=C(Nc1cccc(Br)c1)Nc1cc(Cl)ccc1-c1noc(=O)[nH]1 |
| 181 to 183 °C | COc1ccccc1NC(=O)Nc1cc(Cl)ccc1C(=O)O |
| 181 to 183 °C | O=C(Nc1cccc(-c2ccccc2)c1)Nc1cc(Cl)ccc1C(=O)O |
| 192 to 193 °C | O=C(Nc1cccc(I)c1)Nc1cc(Cl)ccc1C(=O)O |
| 194 to 195 °C | COc1ccc(NC(=O)Nc2cc(Cl)ccc2C(=O)O)cc1 |
| 222 to 224 °C | O=C(Nc1ccccn1)Nc1cc(Cl)ccc1C(=O)O |
| 186 to 188 °C | O=C(Nc1ccccc1)Nc1cc(Cl)ccc1C(=O)O |
| 199 to 200 °C | O=C(Nc1cccs1)Nc1cc(Cl)ccc1C(=O)O |
| 209 to 211 °C | O=C(Nc1cccc(O)c1)Nc1cc(Cl)ccc1C(=O)O |
| 195 to 197 °C | O=C(Nc1ccccc1Br)Nc1cc(Cl)ccc1C(=O)O |
| 173 to 175 °C | O=C(Nc1cc(Cl)ccc1C(=O)O)Nc1ccccc1C(F)(F)F |
| 179 to 182 °C | O=C(Nc1cccc(C(F)(F)F)c1)Nc1cc(Cl)ccc1C(=O)O |

| Compound | melting point |
| --- | --- |
| O=C(Nc1cccc(Cl)c1)Nc1cc(Cl)ccc1C(=O)O [Compound C14, 4-Chloro-2-[3-(3-chloro-phenyl)-ureido]-benzoic acid] | 207 to 209 °C |
| O=C(Nc1ccc2ccccc2c1)Nc1cc(Cl)ccc1C(=O)O [Compound E2, 4-Chloro-2-(3-naphtalen-2-yl-ureido)-benzoic acid] | 176 to 179 °C |
